We go through 22 molecules from US9604940B2 (Chroma Therapeutics Ltd., priority 2012, dated 2017).

Counter-ions that a name gives are not always drawn.

Assay [1] concerns MCP-1. Kind of assay: MCSF-stimulation of human whole blood, MCP-1 levels by sandwich ELISA. The assay is classed as cell-based. To be noted: inhibitor 2 hours before MCSF 50 ng/ml, 22 hrs, MCP-1 in cell-free supernatants, read-out: Inhibitor activity versus MCP-1. The procedure: Macrophage Colony-Stimulating Factor (MCSF)-Stimulation of Human Whole Blood
Whole blood was taken by venous puncture using heparinised vacutainers (Becton Dickinson) and diluted in an equal volume of RPMI1640 tissue culture media (Sigma). 100 μl was plated in V-bottomed 96 well tissue culture treated plates. 2 hours after the addition of the inhibitor in 100 μl of RPMI1640 media, the blood was stimulated with MCSF (Peprotech: #300-25-10 uG) at a final concentration of 50 ng/ml and incubated at 37° C. in 5% CO2 for 22 hrs. MCP-1 levels were measured from cell-free supernatants by sandwich ELISA developed from MCP-1/CCL2 Duoset (R&D Systems #DY279). Additional reagents required for ELISA were purchased from Sigma, (BSA: A3059, 10×PBS: D1408, Tween20: P5927) R&D Systems, (colour reagent: #DY999 and stop solution: #DY994) and Costar (96-well EIA plates: #2592). Assays were carried out following the manufacturer's instructions with the following modifications: Cell-free supernatants were diluted 30:70 in reagent diluent before assay. All incubations except capture antibody were carried out with shaking at 550 rpm. 3 washes were carried out between steps, and incubation times were blocking 1.5 hr, sample/standard and detection antibody incubations 2 hr, HRP incubation 30 min, colour development 20 min. • IC50 values were allocated to one of five ranges as follows: • Range A: IC50<100 nM • Range B: 100 nM<IC50<300 nM • Range C: 300 nM<1050<1000 nM • Range D: 1000 nM<IC50<5000 nM • Range E: IC50>5000 nM • NT=not tested

In assay [2] the target is T1, CSF1R (FMS) (Homo sapiens, UniProt P07333).
T1 construct: purchased Invitrogen (Paisley, UK)
T1 sequence (P07333 20-972): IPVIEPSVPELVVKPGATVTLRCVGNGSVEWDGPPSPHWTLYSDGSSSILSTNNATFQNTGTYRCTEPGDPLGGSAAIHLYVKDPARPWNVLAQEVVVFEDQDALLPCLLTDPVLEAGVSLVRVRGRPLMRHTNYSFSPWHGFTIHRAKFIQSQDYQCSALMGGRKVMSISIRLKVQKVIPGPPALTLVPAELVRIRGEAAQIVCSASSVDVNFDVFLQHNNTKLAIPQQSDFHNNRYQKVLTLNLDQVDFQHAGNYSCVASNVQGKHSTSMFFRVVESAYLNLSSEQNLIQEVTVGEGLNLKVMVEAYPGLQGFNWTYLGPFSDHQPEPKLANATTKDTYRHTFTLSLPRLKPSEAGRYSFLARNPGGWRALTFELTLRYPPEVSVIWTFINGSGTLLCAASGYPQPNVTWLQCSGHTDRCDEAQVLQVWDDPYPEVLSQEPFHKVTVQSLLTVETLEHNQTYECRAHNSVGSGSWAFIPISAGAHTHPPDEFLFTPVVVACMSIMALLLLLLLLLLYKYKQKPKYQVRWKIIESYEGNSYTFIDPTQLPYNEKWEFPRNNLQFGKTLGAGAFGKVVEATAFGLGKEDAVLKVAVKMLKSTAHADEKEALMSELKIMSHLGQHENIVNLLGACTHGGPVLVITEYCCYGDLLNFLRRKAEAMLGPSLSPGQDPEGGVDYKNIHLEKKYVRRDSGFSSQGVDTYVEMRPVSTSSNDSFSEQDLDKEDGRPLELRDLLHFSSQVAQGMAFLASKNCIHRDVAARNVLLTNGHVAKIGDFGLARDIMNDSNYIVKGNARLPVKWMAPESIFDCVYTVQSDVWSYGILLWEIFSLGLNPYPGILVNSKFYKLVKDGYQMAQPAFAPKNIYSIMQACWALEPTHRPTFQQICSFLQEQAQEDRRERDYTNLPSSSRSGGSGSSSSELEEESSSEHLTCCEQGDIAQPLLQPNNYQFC
Description: CSF1R (FMS) kinase activity, Z'-LYTE biochemical assay (Invitrogen). To be noted: ATP at or close to Km, 60 minute reaction at room temperature, read-out: Inhibitor activity versus CSF-1. The procedure: CSF1R (FMS) Kinase Activity
The ability of compounds to inhibit CSF1R (FMS) kinase activity was measured in an assay performed by Invitrogen (Paisley, UK). The Z′-LYTE™ biochemical assay employs a fluorescence-based, coupled-enzyme format and is based on the differential sensitivity of phosphorylated and non-phosphorylated peptides to proteolytic cleavage. The peptide substrate is labelled with two fluorophores—one at each end—that make up a FRET pair. In the primary reaction, the kinase transfers the gamma-phosphate of ATP to a single […] residue in a synthetic FRET-peptide. In the secondary reaction, a site-specific protease recognizes and cleaves non-phosphorylated FRET-peptides. Phosphorylation of FRET-peptides suppresses cleavage by the Development Reagent. Cleavage disrupts FRET between the donor (i.e. coumarin) and acceptor (i.e. fluorescein) fluorophores on the FRET-peptide, whereas uncleaved, phosphorylated FRET-peptides maintain FRET. A […] method, which calculates the ratio (the Emission Ratio) of donor emission to acceptor emission after excitation of the donor fluorophore at 400 nm, is used to quantitate reaction progress.
The final 10 μL Kinase Reaction consists of 0.12-12.3 ng CSF1R (FMS), 2 μM Tyr 01 Peptide and ATP in 50 mM HEPES pH 7.5, 0.01% BRIJ-35, 10 mM MgCl2, 1 mM EGTA. The assay is performed at an ATP concentration at, or close to, the Km. After the 60 minute Kinase Reaction incubation at room temperature, 5 μL of a 1:256 dilution of Development Reagent is added. The assay plate is incubated for a further 60 minutes at room temperature and read on a fluorescence plate reader.
Duplicate data points are generated from a ⅓ log dilution series of a stock solution of test compound in DMSO. Nine dilutions steps are made from a top concentration of 10 mM, and a ‘no compound’ blank is included. Data is collected and analysed using XLfit software from IDBS. The dose response curve is curve fitted to model number 205 (sigmoidal dose-response model). From the curve generated, the concentration giving 50% inhibition is determined and reported.

Turning to `Nc1ncc(-c2ccc(C(=O)NC3CCN[C@@H](C(=O)OC4CCCC4)C3)cc2)nc1NCc1c(Cl)cccc1Cl` (stereo partly drawn) [Example 1, Cyclopentyl (2R)-4-[(4-{5-amino-6-[(2,6-dichlorobenzyl)amino]pyrazin-2-yl}benzoyl)amino]piperidine-2-carboxylate], the IC50 in assay [1] is 0.3 to 1 µM; in assay [2], less than 0.1 µM.
Turning to `CN(C(=O)c1ccc(-c2cnc(N)c(NCc3c(Cl)cccc3Cl)n2)cc1)C1CCN[C@@H](C(=O)OC2CCCC2)C1` (stereo partly shown) [Example 2], the IC50 lay within 0.3 to 1 µM in assay [1] and 0.1 to 0.3 µM in assay [2].
`Nc1ncc(-c2ccc(C(=O)N3CCNC(C(=O)OC4CCCC4)C3)cc2)nc1NCc1c(Cl)cccc1Cl` (stereo not shown) [Example 3, Cyclopentyl 4-(4-{5-amino-6-[(2,6-dichlorobenzyl)amino]pyrazin-2-yl}benzoyl)piperazine-2-carboxylate]: the IC50 in assay [1] lay within 0.3 to 1 µM; in assay [2] it was 0.1 to 0.3 µM.
As to `CC(C)(C)OC(=O)[C@H]1CC(NC(=O)c2ccc(-c3cnc(N)c(NCc4c(Cl)cccc4Cl)n3)cc2)CCN1` (stereo partly drawn) [Example 4, tert-Butyl (2R)-4-[(4-{5-amino-6-[(2,6-dichlorobenzyl)amino]pyrazin-2-yl}benzoyl)amino]piperidine-2-carboxylate], in assay [2], the IC50 lay in the range of 0.1 to 0.3 µM.
For the molecule `CN(C(=O)c1ccc(-c2cnc(N)c(NCc3c(Cl)cccc3Cl)n2)cc1)C1CCN[C@@H](C(=O)OC(C)(C)C)C1` (stereo partly drawn) [Example 5, tert-Butyl (2R)-4-[(4-{5-amino-6-[(2,6-dichlorobenzyl)amino]pyrazin-2-yl}benzoyl)(methyl)amino]piperidine-2-carboxylate], the IC50 in assay [1] was 1 to 5 µM; in assay [2], less than 0.1 µM.
The like results for `CC(C)(C)OC(=O)C1CN(C(=O)c2ccc(-c3cnc(N)c(NCc4c(Cl)cccc4Cl)n3)cc2)CCN1` (stereo not shown) [Example 6, tert-Butyl 4-(4-{5-amino-6-[(2,6-dichlorobenzyl)amino]pyrazin-2-yl}benzoyl)piperazine-2-carboxylate] were, in that order, 0.3 to 1 µM and 0.1 to 0.3 µM.
The corresponding values for `Nc1ncc(-c2ccc(CNC3CCN[C@@H](C(=O)OC4CCCC4)C3)cc2)nc1NCc1c(Cl)cccc1Cl` (stereo partly drawn) [Example 7, Cyclopentyl (2R)-4-[(4-{5-amino-6-[(2,6-dichlorobenzyl)amino]pyrazin-2-yl}benzyl)amino]piperidine-2-carboxylate] are 0.1 to 0.3 µM and less than 0.1 µM.
Consider `Nc1ncc(-c2ccc(CNC3CCN[C@H](C(=O)OC4CCCC4)C3)cc2)nc1NCc1c(Cl)cccc1Cl` (stereo partly drawn) [Example 8, Cyclopentyl (2S)-4-[(4-{5-amino-6-[(2,6-dichlorobenzyl)amino]pyrazin-2-yl}benzyl)amino]piperidine-2-carboxylate], for which the IC50 in assay [1] was 0.1 to 0.3 µM; in assay [2] it was less than 0.1 µM.
Regarding `Nc1ncc(-c2ccc(CN3CCNC(C(=O)OC4CCCC4)C3)cc2)nc1NCc1c(Cl)cccc1Cl` (stereo not shown) [Example 9, Cyclopentyl 4-(4-{5-amino-6-[(2,6-dichlorobenzyl)amino]pyrazin-2-yl}benzyl)piperazine-2-carboxylate], the IC50 in assay [1] was less than 0.1 µM; in assay [2], 0.3 to 1 µM.
The like results for `Nc1ncc(-c2ccc(CN3CCN[C@H](C(=O)OC4CCCC4)C3)cc2)nc1NCc1c(Cl)cccc1Cl` [Example 10, Cyclopentyl (2S)-4-(4-{5-amino-6-[(2,6-dichlorobenzyl)amino]pyrazin-2-yl}benzyl)piperazine-2-carboxylate] were, in that order, less than 0.1 µM and 1 to 5 µM.
Consider `CC(C)C[C@H](NCc1ccc(-c2cnc(N)c(NCc3c(Cl)cccc3Cl)n2)cc1)C(=O)OC1CCCC1` [Example 12, Cyclopentyl N-(4-{5-amino-6-[(2,6-dichlorobenzyl)amino]pyrazin-2-yl}benzyl)-L-leucinate], for which, in assay [2], the IC50 was more than 5 µM.
Same read-out and setting: in the case of `CC(C)C[C@H](NCc1ccc(-c2cnc(N)c(NCc3c(Cl)cccc3Cl)n2)cc1)C(=O)OC(C)(C)C` [Example 13, tert-Butyl N-(4-{5-amino-6-[(2,6-dichlorobenzyl)amino]pyrazin-2-yl}benzyl)-L-leucinate] it was 1 to 5 µM; in that of `CC(C)C[C@H](NCc1ccc(-c2cnc(N)c(NCc3c(F)cccc3F)n2)cc1)C(=O)OC1CCCC1` [Example 15, Cyclopentyl N-(4-{5-amino-6-[(2,6-difluorobenzyl)amino]pyrazin-2-yl}benzyl)-L-leucinate], more than 5 µM.
Regarding `CC(C)C[C@H](NCc1ccc(-c2cnc(N)c(NCc3c(F)cccc3F)n2)cc1)C(=O)OC(C)(C)C` [Example 16, tert-Butyl N-(4-{5-amino-6-[(2,6-difluorobenzyl)amino]pyrazin-2-yl}benzyl)-L-leucinate], in assay [2], the IC50 lay in the range of 1 to 5 µM.
`Nc1ncc(-c2ccc(CNC3CCN[C@@H](C(=O)OC4CCCC4)C3)cc2)nc1NCc1c(F)cccc1Cl` (stereo partly drawn) [Example 17, Cyclopentyl (2R)-4-[(4-{5-amino-6-[(2-chloro-6-fluorobenzyl)amino]pyrazin-2-yl}benzyl)amino]piperidine-2-carboxylate]: the IC50 in assay [2] is less than 0.1 µM.
With `CC(C)(C)OC(=O)[C@H]1CC(NCc2ccc(-c3cnc(N)c(NCc4c(F)cccc4F)n3)cc2)CCN1` (stereo partly drawn) [Example 24, tert-Butyl (2R)-4-[(4-{5-amino-6-[(2,6-difluorobenzyl)amino]pyrazin-2-yl}benzyl)amino]piperidine-2-carboxylate], the IC50 in assay [2] was in the range of 0.3 to 1 µM.
As to `CC(C)CN(Cc1ccc(-c2cnc(N)c(NCc3c(Cl)cccc3Cl)n2)cc1)C1CCN[C@@H](C(=O)OC2CCCC2)C1` (stereo partly drawn) [Example 29, Cyclopentyl (2R)-4-[(4-{5-amino-6-[(2,6-dichlorobenzyl)amino]pyrazin-2-yl}benzyl)(2-methylpropyl)amino]piperidine-2-carboxylate], the IC50 in assay [1] was 1 to 5 µM.
Consider `CC(C)(C)OC(=O)C(C)(C)NCc1cccc(-c2cnc(N)c(NCc3c(Cl)cccc3Cl)n2)c1` [Example 41, tert-Butyl N-(3-{5-amino-6-[(2,6-dichlorobenzyl)amino]pyrazin-2-yl}benzyl)-2-methylalaninate formate salt], for which, in assay [2], the IC50 fell in the range of 1 to 5 µM.
`Nc1ncc(-c2cccc(CCN3CCNC(C(=O)OC4CCCC4)C3)c2)nc1NCc1c(Cl)cccc1Cl` (stereo not shown) [Example 52, Cyclopentyl 4-[2-(3-{5-amino-6-[(2,6-dichlorobenzyl)amino]pyrazin-2-yl}phenyl)ethyl]piperazine-2-carboxylate]: in assay [1], the IC50 lay in the range of 0.1 to 0.3 µM.
With `Nc1ncc(-c2cnn(CC(=O)NC3CCN[C@@H](C(=O)OC4CCCC4)C3)c2)nc1NCc1c(Cl)cccc1Cl` (stereo partly drawn) [Example 53, Cyclopentyl (2R)-4-{[(4-{5-amino-6-[(2,6-dichlorobenzyl)amino]pyrazin-2-yl}-1H-pyrazol-1-yl)acetyl]amino}piperidine-2-carboxylate], the IC50 in assay [2] was 0.1 to 0.3 µM.
As to `CC(C)(C)OC(=O)[C@H]1CC(NC(=O)Cn2cc(-c3cnc(N)c(NCc4c(Cl)cccc4Cl)n3)cn2)CCN1` (stereo partly drawn) [Example 54, tert-Butyl (2R)-4-{[(4-{5-amino-6-[(2,6-dichlorobenzyl)amino]pyrazin-2-yl}-1H-pyrazol-1-yl)acetyl]amino}piperidine-2-carboxylate], the IC50 in assay [2] lay in the range of 0.1 to 0.3 µM.
In the case of `Nc1ncc(-c2ccc(CN3CCNC(C(=O)OC4CCCC4)C3)nc2)nc1NCc1c(Cl)cccc1Cl` (stereo not shown) [Example 59, Cyclopentyl 4-[(5-{5-amino-6-[(2,6-dichlorobenzyl)amino]pyrazin-2-yl}pyridin-2-yl)methyl]piperazine-2-carboxylate], in assay [2], the IC50 is 0.1 to 0.3 µM.
